Assay results reported in PubChem BioAssay (NCI).
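Interpolation was linear, between the two tested concentrations surrounding the appropriate level; five concentrations were tested over 48 hours in 96-well plates. GI50 = concentration required for 50% inhibition of growth. At the TGI there is no net growth.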

Legend:
Assay in all cases: inhibition of tumour cell growth, NCI panel, 48 h; in the data active = GI50 below about 0.43 µM; inactive = the rest
HT29 colon = tested on: HT29 colon
HS 578T breast = tested on: HS 578T breast
OVCAR-3 ovarian = tested on: OVCAR-3 ovarian
IGROV1 ovarian = tested on: IGROV1 ovarian
OVCAR-8 ovarian = tested on: OVCAR-8 ovarian
RXF 393 renal = tested on: RXF 393 renal
NCI-H460 lung = tested on: NCI-H460 lung
PC-3 prostate = tested on: PC-3 prostate
M14 melanoma = tested on: M14 melanoma
ACHN renal = tested on: ACHN renal
SR leukemia = tested on: SR leukemia
HOP-92 NSCLC = tested on: HOP-92 NSCLC
A498 renal = tested on: A498 renal
MDA-MB-231 breast = tested on: MDA-MB-231 breast
BT-549 breast = tested on: BT-549 breast
NCI-H226 lung = tested on: NCI-H226 lung
UO-31 renal = tested on: UO-31 renal
HCC-2998 colon = tested on: HCC-2998 colon
SK-OV-3 ovarian = tested on: SK-OV-3 ovarian
CAKI-1 renal = tested on: CAKI-1 renal
CCRF-CEM leukemia = tested on: CCRF-CEM leukemia
DU-145 prostate = tested on: DU-145 prostate
HCT-15 colon = tested on: HCT-15 colon
SN12C renal = tested on: SN12C renal
SW-620 colon = tested on: SW-620 colon
HOP-62 NSCLC = tested on: HOP-62 NSCLC
KM12 colon = tested on: KM12 colon
NCI-H522 lung = tested on: NCI-H522 lung
786-0 renal = tested on: 786-0 renal
MCF7 breast = tested on: MCF7 breast
U251 CNS = tested on: U251 CNS
MOLT-4 leukemia = tested on: MOLT-4 leukemia
NCI/ADR-RES ovarian = tested on: NCI/ADR-RES ovarian
SK-MEL-5 melanoma = tested on: SK-MEL-5 melanoma
MDA-MB-435 = tested on: MDA-MB-435
SF-268 CNS = tested on: SF-268 CNS
EKVX NSCLC = tested on: EKVX NSCLC
SF-295 CNS = tested on: SF-295 CNS
UACC-257 melanoma = tested on: UACC-257 melanoma
SF-539 CNS = tested on: SF-539 CNS
COLO 205 colon = tested on: COLO 205 colon
HCT-116 colon = tested on: HCT-116 colon
NCI-H23 lung = tested on: NCI-H23 lung
HL-60(TB) leukemia = tested on: HL-60(TB) leukemia
TK-10 renal = tested on: TK-10 renal
OVCAR-4 ovarian = tested on: OVCAR-4 ovarian
UACC-62 melanoma = tested on: UACC-62 melanoma
A549 NSCLC = tested on: A549 NSCLC
SNB-75 CNS = tested on: SNB-75 CNS
SNB-19 CNS = tested on: SNB-19 CNS
T-47D breast = tested on: T-47D breast
RPMI-8226 leukemia = tested on: RPMI-8226 leukemia
MALME-3M melanoma = tested on: MALME-3M melanoma
LOX IMVI melanoma = tested on: LOX IMVI melanoma
SK-MEL-2 melanoma = tested on: SK-MEL-2 melanoma
SK-MEL-28 melanoma = tested on: SK-MEL-28 melanoma
K-562 leukemia = tested on: K-562 leukemia
OVCAR-5 ovarian = tested on: OVCAR-5 ovarian

COc1cccc(-n2ncc3c(N/N=C/c4cccc(F)c4)ncnc32)c1
12.8 µM: TGI (NCI-H460 lung)
10.6 µM: TGI (A549 NSCLC)
15.6 µM: TGI (HS 578T breast) | TGI (MDA-MB-231 breast)
11.3 µM: TGI (HCT-116 colon)
24.5 µM: TGI (NCI-H226 lung)
20.8 µM: TGI (786-0 renal)
13.5 µM: TGI (OVCAR-4 ovarian)
> 19.6 µM: TGI (SN12C renal)
9.14 µM: TGI (SK-OV-3 ovarian)
> 16.4 µM: TGI (UO-31 renal)
> 24.1 µM: TGI (DU-145 prostate)
18.9 µM: TGI (TK-10 renal)
> 20.3 µM: TGI (ACHN renal)
14.2 µM: TGI (HOP-92 NSCLC)
> 25 µM: TGI (HT29 colon) | TGI (IGROV1 ovarian) | TGI (PC-3 prostate) | TGI (M14 melanoma) | TGI (SR leukemia) | TGI (BT-549 breast) | TGI (HCC-2998 colon) | TGI (CCRF-CEM leukemia) | TGI (HCT-15 colon) | TGI (SW-620 colon) | TGI (KM12 colon) | TGI (NCI-H522 lung) | TGI (MCF7 breast) | TGI (MOLT-4 leukemia) | TGI (NCI/ADR-RES ovarian) | TGI (SK-MEL-5 melanoma) | TGI (MDA-MB-435) | TGI (EKVX NSCLC) | TGI (UACC-257 melanoma) | TGI (SF-539 CNS) | TGI (NCI-H23 lung) | TGI (HL-60(TB) leukemia) | TGI (UACC-62 melanoma) | TGI (SNB-19 CNS) | TGI (RPMI-8226 leukemia) | TGI (MALME-3M melanoma) | TGI (LOX IMVI melanoma) | TGI (SK-MEL-2 melanoma) | TGI (SK-MEL-28 melanoma) | TGI (K-562 leukemia) | TGI (OVCAR-5 ovarian)
11.4 µM: TGI (HOP-62 NSCLC)
9.04 µM: TGI (U251 CNS)
> 17.6 µM: TGI (SF-295 CNS)
12.7 µM: TGI (RXF 393 renal)
inactive: GI50 (HT29 colon) 12.9 µM | GI50 (HS 578T breast) 6.02 µM | GI50 (OVCAR-3 ovarian) 5.42 µM | GI50 (IGROV1 ovarian) 13.9 µM | GI50 (OVCAR-8 ovarian) 7.16 µM | GI50 (RXF 393 renal) 5.57 µM | GI50 (NCI-H460 lung) 6.05 µM | GI50 (PC-3 prostate) 9.86 µM | GI50 (M14 melanoma) 11.3 µM | GI50 (ACHN renal) 7.54 µM | GI50 (SR leukemia) 13.6 µM | GI50 (HOP-92 NSCLC) 5.59 µM | GI50 (A498 renal) 5.13 µM | GI50 (MDA-MB-231 breast) 5.78 µM | GI50 (BT-549 breast) 19.5 µM | GI50 (NCI-H226 lung) 9.16 µM | GI50 (UO-31 renal) 6.73 µM | GI50 (HCC-2998 colon) 20.3 µM | GI50 (SK-OV-3 ovarian) 4.8 µM | GI50 (CAKI-1 renal) 8.59 µM | GI50 (CCRF-CEM leukemia) > 25 µM | GI50 (DU-145 prostate) 9.01 µM | GI50 (HCT-15 colon) 14.9 µM | GI50 (SN12C renal) 6.74 µM | GI50 (SW-620 colon) 16.8 µM | GI50 (HOP-62 NSCLC) 5.87 µM | GI50 (KM12 colon) 14.7 µM | GI50 (NCI-H522 lung) > 15.6 µM | GI50 (786-0 renal) 7.31 µM | GI50 (MCF7 breast) > 14.6 µM | GI50 (U251 CNS) 4.66 µM | GI50 (MOLT-4 leukemia) > 25 µM | GI50 (NCI/ADR-RES ovarian) 8.11 µM | GI50 (SK-MEL-5 melanoma) 18.8 µM | GI50 (MDA-MB-435) 10.1 µM | GI50 (SF-268 CNS) 8.46 µM | GI50 (EKVX NSCLC) 10.2 µM | GI50 (SF-295 CNS) 8.19 µM | GI50 (UACC-257 melanoma) 16.4 µM | GI50 (SF-539 CNS) 12.5 µM | GI50 (COLO 205 colon) 8.06 µM | GI50 (HCT-116 colon) 5.76 µM | GI50 (NCI-H23 lung) 11.3 µM | GI50 (HL-60(TB) leukemia) > 25 µM | GI50 (TK-10 renal) 6.93 µM | GI50 (OVCAR-4 ovarian) 6.28 µM | GI50 (UACC-62 melanoma) 11.1 µM | GI50 (A549 NSCLC) 4.94 µM | GI50 (SNB-75 CNS) 5.05 µM | GI50 (SNB-19 CNS) 12.3 µM | GI50 (T-47D breast) 6.41 µM | GI50 (RPMI-8226 leukemia) > 25 µM | GI50 (MALME-3M melanoma) 7.96 µM | GI50 (LOX IMVI melanoma) 9.44 µM | GI50 (SK-MEL-2 melanoma) 12.3 µM | GI50 (SK-MEL-28 melanoma) 8.64 µM | GI50 (K-562 leukemia) > 25 µM | GI50 (OVCAR-5 ovarian) > 23.2 µM
10.1 µM: TGI (OVCAR-3 ovarian)
24.6 µM: TGI (CAKI-1 renal)
18 µM: TGI (OVCAR-8 ovarian)
12.4 µM: TGI (SNB-75 CNS)
> 22 µM: TGI (SF-268 CNS) | TGI (COLO 205 colon)
> 19.2 µM: TGI (T-47D breast)
11.2 µM: TGI (A498 renal)
